Data as given in patent publication US20240158446A1, “CYCLIC COMPOUND HAVING SELECTIVE INHIBITORY ACTION ON KRAS OVER HRAS AND NRAS” (CHUGAI SEIYAKU KABUSHIKI KAISHA, priority 2021, published 2024).
Read-outs that look alike come from different tables or passages of the source. *1 amine or outer side, *2 acyl side, *3 side chain or, on linkers, in order; H or OH if unused. Where a SMILES comes first, the peptide text is derived from it. Bridges are numbered along the chain shown (N, C = ends). [ ]: non-standard residue; d: D form. The star is where a group is joined. hPhe(3,5-F2-4-CF3) = N[C@@H](CCc1cc(F)c(C(F)(F)F)c(F)c1)C(=O)O; hPhe(3-Cl-4-CF3) = N[C@@H](CCc1ccc(C(F)(F)F)c(Cl)c1)C(=O)O; NPrPhe(4-CF3) = CCCN[C@@H](Cc1ccc(C(F)(F)F)cc1)C(=O)O; X28 = COCCCN([C@@H](Cc1ccc(C)cc1)C(=O)[*:2])[*:1]; Pro(4-spirocPr) = O=C(O)[C@@H]1CC2(CC2)CN1; NMeGly(cPent) = CN[C@H](C(=O)O)C1CCCC1; NMeD = CN[C@@H](CC(=O)O)C(=O)O; Ac4c(3-oxa) = NC1(C(=O)O)COC1; NMeL = CN[C@@H](CC(C)C)C(=O)O; Morpholide = C1CN(*)CCO1; NMeA = CN[C@@H](C)C(=O)O; Ac5c = NC1(C(=O)O)CCCC1; Aze = O=C(O)[C@@H]1CCN1; Sar = CNCC(=O)O

Tests used:
[1] = biological target: GDP-bound KRAS wild-type protein (Homo sapiens, UniProt P01116); assay: Binding to KRAS by surface plasmon resonance (SPR), Single Cycle Kinetics; conditions: GDP-bound KRAS wild-type protein, read-out: KRAS KD
[2] = biological target: GDP-bound NRAS wild-type protein (Homo sapiens, UniProt P01111); assay: Binding to NRAS by surface plasmon resonance (SPR), Single Cycle Kinetics
[3] = biological target: GDP-bound HRAS wild-type protein (Homo sapiens, UniProt P01112); assay: Binding to HRAS by surface plasmon resonance (SPR), Single Cycle Kinetics
[4] = SPR Single Cycle Kinetics, 1:1 binding model
[5] = SPR, GDP-bound NRAS wild-type protein vs GDP-bound KRAS wild-type protein
[6] = SPR, GDP-bound HRAS wild-type protein vs GDP-bound KRAS wild-type protein

GDP-bound KRAS wild-type protein, sequence (P01116 whole entry): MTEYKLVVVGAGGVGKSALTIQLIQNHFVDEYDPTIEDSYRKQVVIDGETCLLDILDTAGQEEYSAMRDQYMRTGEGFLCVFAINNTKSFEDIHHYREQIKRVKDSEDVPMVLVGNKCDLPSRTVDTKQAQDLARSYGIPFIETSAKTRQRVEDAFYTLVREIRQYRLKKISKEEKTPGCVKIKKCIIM
GDP-bound NRAS wild-type protein, sequence (P01111 whole entry): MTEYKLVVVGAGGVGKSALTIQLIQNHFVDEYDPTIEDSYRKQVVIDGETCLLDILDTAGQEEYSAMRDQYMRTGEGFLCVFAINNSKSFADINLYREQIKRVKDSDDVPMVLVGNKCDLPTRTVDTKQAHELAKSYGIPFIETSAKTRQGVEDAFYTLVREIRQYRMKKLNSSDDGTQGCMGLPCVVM
GDP-bound HRAS wild-type protein, sequence (P01112 whole entry): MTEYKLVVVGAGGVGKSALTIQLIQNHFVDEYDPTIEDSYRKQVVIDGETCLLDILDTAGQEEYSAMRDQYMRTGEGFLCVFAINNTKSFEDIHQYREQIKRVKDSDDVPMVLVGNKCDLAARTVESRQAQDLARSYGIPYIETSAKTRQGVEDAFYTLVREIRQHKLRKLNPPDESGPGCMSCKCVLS

CC[C@H](C)[C@@H]1NC(=O)[C@H](CC(C)C)N(C)C(=O)C[C@@H](C(=O)N2CCOCC2)N(C)C(=O)[C@H](C2CCCC2)N(C)C(=O)C2(CCCC2)NC(=O)[C@@H]2CCCN2C(=O)[C@H](CCc2ccc(C(F)(F)F)c(Cl)c2)NC(=O)CN(C)C(=O)[C@H](Cc2ccc(C)cc2)N(CCCOC)C(=O)[C@@H]2CCN2C(=O)[C@H](C)N(C)C1=O [PP0093] ([NMeL]I[NMeA][Aze][X28][Sar][hPhe(3-Cl-4-CF3)]P[Ac5c][NMeGly(cPent)][NMeD]-Morpholide; lactam N-11)
Kd [1, 4]: 0.076 nM | NRAS/KRAS (ratio of KD value for NRAS to KD value for KRAS) [2, 5]: C (A compound having a KD ratio of 0.1 or more and less than 3 is denoted as C) | HRAS/KRAS (ratio of KD value for HRAS to KD value for KRAS) [3, 6]: B (a compound having 3 or more and less than 10 is denoted as B)

CCC[C@H]1C(=O)N[C@@H]([C@@H](C)CC)C(=O)N(C2CC2)CC(=O)N(C)[C@H]2C/C=C\CCN(C2=O)[C@@H](Cc2ccc(C(F)(F)F)cc2)C(=O)N(C)CC(=O)N[C@@H](CCc2ccc(Cl)c(Cl)c2)C(=O)N2C[C@H](OCC)C[C@H]2C(=O)NC2(CC(C)(C)C2)C(=O)N(C)[C@@H](CC2CCC2)C(=O)N(C)[C@H](C(=O)N(C)C)CC(=O)N1C [PP2819]
Kd [1, 4]: 2.2 nM | NRAS/KRAS (ratio of KD value with respect to GDP-bound NRAS wild-type protein to KD value with respect to KRAS) ([2]; SPR KD ratio NRAS/KRAS, class symbols): A (a compound having 10 or more and less than 20 is denoted as A) | HRAS/KRAS (ratio of KD value with respect to GDP-bound HRAS wild-type protein to KD value with respect to KRAS) ([3]; SPR KD ratio HRAS/KRAS, class symbols): A (a compound having 10 or more and less than 20 is denoted as A)

CCCN1C(=O)[C@@H]2CCN2C(=O)[C@H](C)N(C)C(=O)[C@H]([C@@H](C)CC)NC(=O)[C@H](CC(C)C)N(C)C(=O)C[C@@H](C(=O)N2CCOCC2)N(C)C(=O)[C@H](C2CCCC2)N(C)C(=O)C2(CCCC2)NC(=O)[C@@H]2CC3(CC3)CN2C(=O)[C@H](CCc2ccc(C(F)(F)F)c(Cl)c2)NC(=O)CN(C)C(=O)[C@@H]1Cc1ccc(C(F)(F)F)cc1 [PP0282] ([NMeL]I[NMeA][Aze][NPrPhe(4-CF3)][Sar][hPhe(3-Cl-4-CF3)][Pro(4-spirocPr)][Ac5c][NMeGly(cPent)][NMeD]-Morpholide; lactam N-11)
Kd [1, 4]: 0.11 nM | NRAS/KRAS (ratio of KD value for NRAS to KD value for KRAS) [2, 5]: C (A compound having a KD ratio of 0.1 or more and less than 3 is denoted as C) | HRAS/KRAS (ratio of KD value for HRAS to KD value for KRAS) [3, 6]: C (A compound having a KD ratio of 0.1 or more and less than 3 is denoted as C)

CC[C@H](C)[C@@H]1NC(=O)[C@H](COC)N(C)C(=O)C[C@@H](C(=O)N2CCOCC2)N(C)C(=O)[C@H](C2CCCC2)N(C)C(=O)C2(CCC2)NC(=O)[C@@H]2CC(F)(F)CN2C(=O)[C@H](CCc2cc(F)c(C(F)(F)F)c(F)c2)NC(=O)CN(C)C(=O)[C@H](Cc2ccc(C(F)(F)F)cc2)N2CCCCC[C@@H](C2=O)N(C)C(=O)CNC1=O [PP0861]
Kd ([1]; SPR, Single Cycle Kinetics): 0.66 nM | NRAS/KRAS (ratio of KD value for NRAS to KD value for KRAS) [2, 5]: B (a compound having 3 or more and less than 10 is denoted as B) | HRAS/KRAS (ratio of KD value for HRAS to KD value for KRAS) [3, 6]: B (a compound having 3 or more and less than 10 is denoted as B)

CCCN1C(=O)[C@@H]2CCN2C(=O)CN(C)C(=O)[C@H]([C@@H](C)CC)NC(=O)[C@H](CC(C)C)N(C)C(=O)C[C@@H](C(=O)N2CCOCC2)N(C)C(=O)[C@H](C2CCCC2)N(C)C(=O)C2(COC2)NC(=O)[C@@H]2CCCN2C(=O)[C@H](CCc2cc(F)c(C(F)(F)F)c(F)c2)NC(=O)CN(C)C(=O)[C@@H]1Cc1ccc(C(F)(F)F)cc1 [PP0801] ([NMeL]I[Sar][Aze][NPrPhe(4-CF3)][Sar][hPhe(3,5-F2-4-CF3)]P[Ac4c(3-oxa)][NMeGly(cPent)][NMeD]-Morpholide; lactam N-11)
Kd [1, 4]: 0.45 nM | NRAS/KRAS (ratio of KD value with respect to NRAS to KD value with respect to KRAS) [2, 5]: C (A compound having a KD ratio of 0.1 or more and less than 3 is denoted as C) | HRAS/KRAS (ratio of KD value with respect to HRAS to KD value with respect to KRAS) [3, 6]: B (a compound having 3 or more and less than 10 is denoted as B)
